Assay results as given in patent US7417030B2, “Indazole peptidomimetics as thrombin receptor antagonists” (Ortho-McNeil Pharmaceutical, Inc., priority 1999, dated 2008).

How the values were obtained:
[1] = target: T1, Thrombin receptor (PAR-1) (Homo sapiens, UniProt P25116); assay: In vitro thrombin receptor binding assay; details: CHRF membranes; tritiated 721-40 (Ser-pFPhe-Har-Leu-Har-Lys-Tyr-NH2) radioligand; read-out: IC50 (μM) Thr Recptr Bdg
T1 construct: CHRF membranes (Jones, Biochim. Biophys. Acta 1992, 1136, 272) are thawed from −70° C; endogenous in cells; host or cells: CHRF cell membranes
T1 sequence (P25116 22-425): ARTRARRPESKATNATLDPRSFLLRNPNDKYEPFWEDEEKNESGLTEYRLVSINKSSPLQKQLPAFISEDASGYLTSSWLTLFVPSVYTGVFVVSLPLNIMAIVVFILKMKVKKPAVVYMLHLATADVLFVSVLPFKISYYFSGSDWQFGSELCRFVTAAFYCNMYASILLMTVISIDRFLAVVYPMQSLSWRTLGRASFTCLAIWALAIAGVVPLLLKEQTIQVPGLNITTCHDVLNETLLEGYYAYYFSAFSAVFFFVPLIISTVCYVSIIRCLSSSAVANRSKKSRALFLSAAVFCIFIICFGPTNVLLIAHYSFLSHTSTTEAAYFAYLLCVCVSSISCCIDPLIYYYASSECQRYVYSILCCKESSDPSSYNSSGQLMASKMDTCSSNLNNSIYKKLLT
Experimental: In Vitro Thrombin Receptor Binding Assay
CHRF membranes (Jones, Biochim. Biophys. Acta 1992, 1136, 272) are thawed from −70° C., centrifuged at maximum speed for 5 min, washed twice with binding buffer (50 mM HEPES containing 5 mM MgCl2 and 0.1% BSA), and re-suspended in binding buffer (25 μg/[…]). 100 μL of membranes are added to the 24-Wallac plates and delivered to the Tomtech apparatus. In a typical experiment, 6 μL of samples (from a 125 μg/mL intermediary plate, 20% DMSO) and 44 μL buffer are delivered to the plates (final conc. of compounds is 3.7 μg/mL, 0.6% DMSO). Similarly, 6 μL 20% DMSO and 44 μL buffer are delivered to both column 1 (NSB) and column 12 (TB). […] Ser-pFPhe-Har-Leu-Har-Lys-Tyr-NH2 (SEQ. ID. No. 2) (721-40; 500 μM in deionized water) is added to column 1. 50 μL tritiated 721-40 (specific activity 46 Ci/mmol) is added to all the wells. The plates are mixed well for 20 seconds, incubated for 30 min, and then harvested with 10 mM HEPES/138 mM NaCl using the Skatron harvester. The filters (GF/C Brandel FPXLR 296) are presoaked 3 h in 0.5% polyethylenimine in HEPES/0.1M N-acetylglucosamine) are set in Saran™ wrap and dried for 3 min in the microwave, and placed in sample bags (Wallac 1450-432). 4.5 mL scintillation fluid (Wallac, Betaplate Scint 1205-440) is added. The bags are sealed, placed in filter cassettes (Wallac 1450-104), and analyzed on the microbeta counter.

[2] = test system: platelet aggregation stimulated by thrombin (gel-filtered platelets); assay: In vitro inhibition of thrombin-induced gel-filtered platelet aggregation assay; assay type: cell-based; details: thrombin-induced gel-filtered human platelet aggregation; agonist thrombin 50 μL of 1 unit/mL; read-out: IC50 (μM) Thr GFP Aggr
Experimental: In Vitro Inhibition Of Thrombin-Induced Gel-Filtered Platelet Aggregation Assay
The percentage of platelet aggregation is calculated as an increase in light transmission of compound-treated platelet concentrate vs. control-treated platelet concentrate. Human blood is obtained from drug free, normal donors in tubes containing 0.13M sodium citrate. Platelet rich plasma (PRP) is collected by centrifugation of whole blood at 200×g for 10 min at 25° C. The PRP (5 mL) is gel filtered through Sepharose 2B (bed volume 50 mL), and the platelet count is adjusted to 2×10^7 platelets per sample. The following constituents are added to a siliconized cuvette: concentrated platelet filtrate and Tyrode's buffer (0.14M NaCl, 0.0027M KCl, 0.012M NaHCO3, 0.76 mM Na2HPO4, 0.0055M glucose, 2 mg/mL BSA and 5.0 mM HEPES @ pH 7.4) in an amount equal to 350 μL, 50 μL of 20 mM calcium and 50 μL of the test compound. Aggregation is monitored in a BIODATA aggregometer for the 3 min following the addition of agonist (thrombin 50 μL of 1 unit/mL).

| Compound | IC50 [1] | IC50 [2] |
| --- | --- | --- |
| NCCNC(=O)[C@H](Cc1ccncc1)NC(=O)[C@H](Cc1ccc(F)c(F)c1)NC(=O)Nc1ccc2c(CN3CCCC3)nn(Cc3c(Cl)cccc3Cl)c2c1 [Compound 3, L-Alaninamide, 3,4-difluoro-N-[[[1-[(2,6-dichlorophenyl)methyl]-3-(1-pyrrolidinylmethyl)-1H-indazol-6-yl]amino]carbonyl]-L-phenylalanyl-N-(2-aminoethyl)-3-(4-pyridinyl)-] | 0.03 µM | 0.5 µM |
| C[C@@H](NC(=O)[C@H](CCN)NC(=O)[C@H](Cc1ccc(F)c(F)c1)NC(=O)Nc1ccc2c(CN3CCCC3)nn(Cc3c(Cl)cccc3Cl)c2c1)c1ccccc1 [Compound 4] | 0.15 µM | 0.32 µM |
| NCC[C@H](NC(=O)[C@H](Cc1ccc(Cl)cc1)NC(=O)Nc1ccc2c(CN3CCCC3)nn(Cc3c(Cl)cccc3Cl)c2c1)C(=O)NCc1ccccc1 [Compound 2, Benzenepropanamide, N-[(1S)-3-amino-1-[[(phenylmethyl)amino]carbonyl]propyl]-α-[[[[[1-(2,6-dichlorophenyl)methyl]-3-(1-pyrrolidinylmethyl)-1H-indazol-6-yl]amino]carbonyl]amino]-4-chloro-, (αS)-] | 20 µM | 0.26 µM |
| NCC[C@H](NC(=O)[C@H](Cc1ccc(F)c(F)c1)NC(=O)Nc1ccc2c(CN3CCCC3)nn(Cc3c(Cl)cccc3Cl)c2c1)C(=O)NCc1ccccc1 [Compound 1, Benzenepropanamide, N-[(1S)-3-amino-1-[[(phenylmethyl)amino]carbonyl]propyl]-α-[[[[[1-(2,6-dichlorophenyl)methyl]-3-(1-pyrrolidinylmethyl)-1H-indazol-6-yl]amino]carbonyl]amino]-3,4-difluoro-,(αS)-] | 0.04 µM | 0.31 µM |
| NCC[C@H](NC(=O)[C@H](Cc1ccc(F)c(F)c1)NC(=O)Nc1ccc2c(CN3CCCC3)nn(Cc3c(Cl)cccc3Cl)c2c1)C(=O)N[C@H](CO)c1ccccc1 [Compound 5] | 0.32 µM | 0.66 µM |
| NCCNC(=O)[C@H](Cc1cccs1)NC(=O)[C@H](Cc1ccc(Cl)cc1)NC(=O)Nc1ccc2c(CN3CCCC3)nn(Cc3c(Cl)cccc3Cl)c2c1 [Compound 6] | 5.8 µM | 0.3 µM |
